Measurements as given in patent publication US20190374627A1, “TARGET PEPTIDES FOR CANCER THERAPY AND DIAGNOSTICS” (priority 2016, published 2019).
Square brackets hold non-standard residues; d marks the D form. Ends that are not written are not given here. Met(O) = CS(=O)CC[C@H](N)C(=O)O; pS = N[C@@H](COP(=O)(O)O)C(=O)O

Experiments:
[1] = tested on: unexpanded lymphocyte cultures (CD8^+ T cells); assay: ICS for MHC-I-pP reactivity of lymphocyte cultures without expansion (Table 23, No Expansion)
CD8^+ T cells (PBMCs) = assay: Intracellular cytokine staining (ICS) of PBMCs after 7 days of stimulation with MHC-I-pP (healthy donors, HH patients); assay type: cell-based, human; details: for Reactive CD8^+ T cell population, HH2: HH patient HH2; for Reactive CD8^+ T cell population, HH3: HH patient HH3; for Reactive CD8^+ T cell population, HH6: HH patient HH6; for Reactive CD8^+ T cell population, HH8: HH patient HH8; for Reactive CD8^+ T cell population, HH11: HH patient HH11; for Reactive CD8^+ T cell population, HD1: Healthy donor HD1; for Reactive CD8^+ T cell population, HD4: Healthy donor HD4; for Reactive CD8^+ T cell population, HD5: Healthy donor HD5
How it was run: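 PBMCs or liver lymphocytes from HLA-A*0201-positive healthy donors and hereditary hemochromatosis patients were stimulated for 7 days with HLA-A*0201-restricted phosphopeptides and no added cytokines. After exclusion of doublets and dead cells with a fixable viability dye, CD3^+CD8^+ cells were analysed by intracellular staining for IFN-γ and TNF-α, plus CD107a where needed.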

[2] = tested on: expanded TIL / IHL cultures; assay: ICS for MHC-I-pP reactivity of liver-derived lymphocyte cultures after unspecific rapid expansion protocol (REP); assay type: cell-based, human
[3] = tested on: expanded lymphocyte cultures from deceased donor livers, cirrhotic livers and HCC; assay: ICS for MHC-I-pP reactivity of liver-derived lymphocyte cultures after phosphopeptide-specific expansion; assay type: cell-based, human; details: for ppCTL response, Deceased Donor Liver Do 2 / ppCTL response, Deceased Donor Liver Do 3 / ppCTL response, Deceased Donor Liver Do 4 / ppCTL response, Deceased Donor Liver Do 6 / ppCTL response, End-stage Liver Cirrhosis IHL 11 / ppCTL response, End-stage Liver Cirrhosis IHL 12 / ppCTL response, End-stage Liver Cirrhosis IHL 13 / ppCTL response, End-stage Liver Cirrhosis IHL 15 / ppCTL response, HCC Distal HCC 1 / ppCTL response, HCC Tumor HCC 1 / ppCTL response, HCC Distal HCC 4 / ppCTL response, HCC Distal HCC 9 / ppCTL response, HCC Tumor HCC 9 / ppCTL response, HCC Distal HCC 12: pP-specifically expanded culture; for ppCTL response, HCC Distal HCC 1: HCC 1 Distal; for ppCTL response, HCC Tumor HCC 1: HCC 1 Tumor; for ppCTL response, HCC Distal HCC 4: HCC 4 Distal; for ppCTL response, HCC Distal HCC 9: HCC 9 Distal; for ppCTL response, HCC Tumor HCC 9: HCC 9 Tumor; for ppCTL response, HCC Distal HCC 12: HCC 12 Distal

Substance | Reactive CD8^+ T cells, No Expansion, HH6 [1] | Reactive CD8^+ T cell population, HH2 (CD8^+ T cells (PBMCs)) | Reactive CD8^+ T cell population, HH3 (CD8^+ T cells (PBMCs)) | Reactive CD8^+ T cell population, HH6 (CD8^+ T cells (PBMCs)) | Reactive CD8^+ T cell population, HH8 (CD8^+ T cells (PBMCs)) | Reactive CD8^+ T cell population, HD1 (CD8^+ T cells (PBMCs)) | Reactive CD8^+ T cell population, HD4 (CD8^+ T cells (PBMCs)) | Reactive CD8^+ T cell population, HD5 (CD8^+ T cells (PBMCs)) | Reactive CD8^+ T cells, Non-specific Expansion, Do2 [2] | Reactive CD8^+ T cells, Non-specific Expansion, Do4 [2] | Reactive CD8^+ T cells, Non-specific Expansion, HH6 [2] | Reactive CD8^+ T cells, pP-specific Expansion, Do2 [3] | Reactive CD8^+ T cells, pP-specific Expansion, Do4 [3] | Reactive CD8^+ T cells, pP-specific Expansion, HH6 [3] | ppCTL response, Deceased Donor Liver Do 2 [3] | ppCTL response, Deceased Donor Liver Do 3 [3] | ppCTL response, Deceased Donor Liver Do 4 [3] | ppCTL response, Deceased Donor Liver Do 6 [3] | ppCTL response, End-stage Liver Cirrhosis IHL 11 [3] | ppCTL response, End-stage Liver Cirrhosis IHL 12 [3] | further results
RLSsPLHFV: FAM134A phosphopeptide, HLA-A*0201 (RLS[pS]PLHFV; listed as Homo sapiens) | 0 (<0.25% reactive CD8^-+ T cells) | 1 (0.25-2.5% reactive CD8^-+ T cells) | 0 (<0.25% reactive CD8^-+ T cells) | 0 (<0.25% reactive CD8^-+ T cells) | 0 (<0.25% reactive CD8^-+ T cells) | 0 (<0.25% reactive CD8^-+ T cells) | 0 (<0.25% reactive CD8^-+ T cells) | 0 (<0.25% reactive CD8^-+ T cells) | 0 (<0.25% reactive CD8^-+ T cells) | 0 (<0.25% reactive CD8^-+ T cells) | 0 (<0.25% reactive CD8^-+ T cells) | 0 (<0.25% reactive CD8^-+ T cells) | 0 (<0.25% reactive CD8^-+ T cells) | 0 (<0.25% reactive CD8^-+ T cells) | 0 (<0.25% reactive CD8-+ T cells) | 0 (<0.25% reactive CD8-+ T cells) | 0 (<0.25% reactive CD8-+ T cells) | 0 (<0.25% reactive CD8-+ T cells) | 0 (<0.25% reactive CD8-+ T cells) | 0 (<0.25% reactive CD8-+ T cells) | Reactive CD8^+ T cell population, HH11 (CD8^+ T cells (PBMCs)): 0 (<0.25% reactive CD8^-+ T cells); ppCTL response, End-stage Liver Cirrhosis IHL 13 [3]: 0 (<0.25% reactive CD8-+ T cells); ppCTL response, End-stage Liver Cirrhosis IHL 15 [3]: 0 (<0.25% reactive CD8-+ T cells); ppCTL response, HCC Distal HCC 1 [3]: 0 (<0.25% reactive CD8-+ T cells); ppCTL response, HCC Tumor HCC 1 [3]: 0 (<0.25% reactive CD8-+ T cells); ppCTL response, HCC Distal HCC 4 [3]: 0 (<0.25% reactive CD8-+ T cells); ppCTL response, HCC Distal HCC 9 [3]: 0 (<0.25% reactive CD8-+ T cells); ppCTL response, HCC Tumor HCC 9 [3]: 0 (<0.25% reactive CD8-+ T cells); ppCTL response, HCC Distal HCC 12 [3]: 0 (<0.25% reactive CD8-+ T cells)
RTFsPTYGL: SYNM phosphopeptide, HLA-A*0201 (RTF[pS]PTYGL; listed as Homo sapiens) | 1 (0.25-2.5% reactive CD8^-+ T cells) | 0 (<0.25% reactive CD8^-+ T cells) | 0 (<0.25% reactive CD8^-+ T cells) | 0 (<0.25% reactive CD8^-+ T cells) | 0 (<0.25% reactive CD8^-+ T cells) | 0 (<0.25% reactive CD8^-+ T cells) | 0 (<0.25% reactive CD8^-+ T cells) | 0 (<0.25% reactive CD8^-+ T cells) | 0 (<0.25% reactive CD8^-+ T cells) | 0 (<0.25% reactive CD8^-+ T cells) | 0 (<0.25% reactive CD8^-+ T cells) | 0 (<0.25% reactive CD8^-+ T cells) | 0 (<0.25% reactive CD8^-+ T cells) | 3 (5-7.5% reactive CD8^-+ T cells) | 0 (<0.25% reactive CD8-+ T cells) | 0 (<0.25% reactive CD8-+ T cells) | 0 (<0.25% reactive CD8-+ T cells) | 0 (<0.25% reactive CD8-+ T cells) | 0 (<0.25% reactive CD8-+ T cells) | 0 (<0.25% reactive CD8-+ T cells) | Reactive CD8^+ T cell population, HH11 (CD8^+ T cells (PBMCs)): 0 (<0.25% reactive CD8^-+ T cells); ppCTL response, End-stage Liver Cirrhosis IHL 13 [3]: 0 (<0.25% reactive CD8-+ T cells); ppCTL response, End-stage Liver Cirrhosis IHL 15 [3]: 1 (0.25-2.5% reactive CD8-+ T cells); ppCTL response, HCC Distal HCC 1 [3]: 0 (<0.25% reactive CD8-+ T cells); ppCTL response, HCC Tumor HCC 1 [3]: 0 (<0.25% reactive CD8-+ T cells); ppCTL response, HCC Distal HCC 4 [3]: 0 (<0.25% reactive CD8-+ T cells); ppCTL response, HCC Distal HCC 9 [3]: 0 (<0.25% reactive CD8-+ T cells); ppCTL response, HCC Tumor HCC 9 [3]: 0 (<0.25% reactive CD8-+ T cells); ppCTL response, HCC Distal HCC 12 [3]: 0 (<0.25% reactive CD8-+ T cells)
RTHsLLLLL (RTH[pS]LLLLL; listed as Homo sapiens) | 1 (0.25-2.5% reactive CD8^-+ T cells) | 0 (<0.25% reactive CD8^-+ T cells) | 0 (<0.25% reactive CD8^-+ T cells) | 0 (<0.25% reactive CD8^-+ T cells) | 0 (<0.25% reactive CD8^-+ T cells) | 0 (<0.25% reactive CD8^-+ T cells) | 0 (<0.25% reactive CD8^-+ T cells) | 0 (<0.25% reactive CD8^-+ T cells) | 0 (<0.25% reactive CD8^-+ T cells) | 0 (<0.25% reactive CD8^-+ T cells) | 1 (0.25-2.5% reactive CD8^-+ T cells) | 0 (<0.25% reactive CD8^-+ T cells) | 0 (<0.25% reactive CD8^-+ T cells) | 0 (<0.25% reactive CD8^-+ T cells) | 0 (<0.25% reactive CD8-+ T cells) | 0 (<0.25% reactive CD8-+ T cells) | 0 (<0.25% reactive CD8-+ T cells) | 0 (<0.25% reactive CD8-+ T cells) | 0 (<0.25% reactive CD8-+ T cells) | 0 (<0.25% reactive CD8-+ T cells) | Reactive CD8^+ T cells, No Expansion, Do4 ([1]; Do4): 2 (2.5-5.0% reactive CD8^-+ T cells); Reactive CD8^+ T cell population, HH10 (CD8^+ T cells (PBMCs); HH patient HH10): 0 (<0.25% reactive CD8^-+ T cells); Reactive CD8^+ T cell population, HH11 (CD8^+ T cells (PBMCs)): 0 (<0.25% reactive CD8^-+ T cells); Reactive CD8^+ T cell population, HD2 (CD8^+ T cells (PBMCs); Healthy donor HD2): 0 (<0.25% reactive CD8^-+ T cells); Reactive CD8^+ T cell population, HD3 (CD8^+ T cells (PBMCs); Healthy donor HD3): 0 (<0.25% reactive CD8^-+ T cells); ppCTL response, End-stage Liver Cirrhosis IHL 13 [3]: 0 (<0.25% reactive CD8-+ T cells); ppCTL response, End-stage Liver Cirrhosis IHL 15 [3]: 0 (<0.25% reactive CD8-+ T cells); ppCTL response, HCC Distal HCC 1 [3]: 0 (<0.25% reactive CD8-+ T cells); ppCTL response, HCC Tumor HCC 1 [3]: 0 (<0.25% reactive CD8-+ T cells); ppCTL response, HCC Distal HCC 4 [3]: 0 (<0.25% reactive CD8-+ T cells); ppCTL response, HCC Distal HCC 9 [3]: 0 (<0.25% reactive CD8-+ T cells); ppCTL response, HCC Tumor HCC 9 [3]: 0 (<0.25% reactive CD8-+ T cells); ppCTL response, HCC Distal HCC 12 [3]: 0 (<0.25% reactive CD8-+ T cells)
SImsPEIQL: CIC phosphopeptide, HLA-A*0201 (SI[Met(O)][pS]PEIQL; listed as Homo sapiens) | 0 (<0.25% reactive CD8^-+ T cells) | 1 (0.25-2.5% reactive CD8^-+ T cells) | 0 (<0.25% reactive CD8^-+ T cells) | 0 (<0.25% reactive CD8^-+ T cells) | 0 (<0.25% reactive CD8^-+ T cells) | 0 (<0.25% reactive CD8^-+ T cells) | 0 (<0.25% reactive CD8^-+ T cells) | 0 (<0.25% reactive CD8^-+ T cells) | 0 (<0.25% reactive CD8^-+ T cells) | 0 (<0.25% reactive CD8^-+ T cells) | 0 (<0.25% reactive CD8^-+ T cells) | 0 (<0.25% reactive CD8^-+ T cells) | 0 (<0.25% reactive CD8^-+ T cells) | 2 (2.5-5.0% reactive CD8^-+ T cells) | 0 (<0.25% reactive CD8-+ T cells) | 0 (<0.25% reactive CD8-+ T cells) | 0 (<0.25% reactive CD8-+ T cells) | 0 (<0.25% reactive CD8-+ T cells) | 0 (<0.25% reactive CD8-+ T cells) | 0 (<0.25% reactive CD8-+ T cells) | ppCTL response, End-stage Liver Cirrhosis IHL 13 [3]: 0 (<0.25% reactive CD8-+ T cells); ppCTL response, End-stage Liver Cirrhosis IHL 15 [3]: 0 (<0.25% reactive CD8-+ T cells); ppCTL response, HCC Distal HCC 1 [3]: 0 (<0.25% reactive CD8-+ T cells); ppCTL response, HCC Tumor HCC 1 [3]: 0 (<0.25% reactive CD8-+ T cells); ppCTL response, HCC Distal HCC 4 [3]: 0 (<0.25% reactive CD8-+ T cells); ppCTL response, HCC Distal HCC 9 [3]: 0 (<0.25% reactive CD8-+ T cells); ppCTL response, HCC Tumor HCC 9 [3]: 0 (<0.25% reactive CD8-+ T cells); ppCTL response, HCC Distal HCC 12 [3]: 0 (<0.25% reactive CD8-+ T cells)
